Laboratory results taken from US8198236B2, “Methods and compositions for the treatment of cancer” (Washington University, priority 2007, dated 2012).

B1: Dkk1: Human recombinant DKK1 protein, LRP6-specific ligand and antagonist (protein)
chain: TLNSVLNSNAIKNLPPPLGGAAGHPGSAVSAAPGILYPGGNKYQTIDNYQPYPCAEDEECGTDEYCASPTRGGDAGVQICLACRKRRKRCMRHAMCCPGNYCKNGICVSSDQNHFRGEIEETITESFGNDHSTLDGYSRRTTLSSKMYHTKGQEGSVCLRSSDCASGLCCARHFWSKICKPVLKEGQVCTKHRRKGSHGLEIFQRCYCGEGLSCRIQKDHHQASNSSRLHTCQRH

What was measured:
[1] = mouse, in vivo
Protocol: Hemotoxylin and eosin (H&E) staining was performed on tumor xenograft tissue, skin and intestine harvested at the end of Mesd treatment.
FIG. 24D: H&E staining of tail vertebrae treated with PBS, Mesd or Mesd peptide.

[2] = mouse, in vivo; remark: listed apart in the source
Protocol: In experiments shown in FIG. 23, pharmacokinetics of Mesd peptide and Mesd were examined. FIG. 23A: Amount of Mesd in serum following a single dose of protein administration. Mice were dosed at 5, 10, 20 mg/kg of Mesd via i.p. and the serum samples were collected from individual mice at the indicated time points. The levels of Mesd in serum were quantified by comparison to Mesd pure protein with known concentrations in Western blot analysis. Values are the average of triple determinations with S.D. indicated by error bars. […] Samples were obtained by terminal bleed under anesthesia at each of the indicated time points (N=3 animals per time point). Radioactivity was measured using a gamma counter and DPM converted to mass units/mL blood using the specific activity (DPM/mass) of each test substance. Data are plotted as mass U/mL of test substance with standard deviation indicated by error bars.

Wnt signaling [3] = assay: Wnt signaling in MMTV-Wnt1 tumors (GST-E-cadherin pull-down, c-Myc expression); assay type: in vivo, mice; conditions: GST-E-cadherin pull-down and c-Myc expression
Protocol: The GST-E-cadherin pulldown assay was performed as previously described (2). Cells expressing control or LRP6 shRNA were treated with L cells or Wnt3a-conditioned media (CM) for 4 h. Free β-catenin was determined using a GST-E-cadherin pull-down assay. Cells were lysed for 30 minutes at 4° C. Protein concentrations in lysates were quantified, and equal quantities of total proteins from different samples were incubated with GST-E-cadherin Sepharose beads for 4 h at 4° C. After incubation, the beads were washed three times and the bound proteins were eluted and separated via SDS-PAGE. Western blotting was performed using antibody to β-catenin.
In these experiments, mice bearing established MMTV-Wnt1 tumor transplants were divided into three groups (five animals per group) and were i.p. injected with PBS (vehicle), Mesd, or Mesd peptide every other day. Tumor volume was analyzed using caliper measurement. Data represent at least three independent experiments and each time point represents the mean tumor volume±SEM. *p<0.05; **p<0.01. […] Scale bar=50 μm.

MMTV-Wnt1 tumors = assay: MMTV-Wnt1 tumor transplant growth in nude mice; assay type: in vivo; conditions: i.p. every other day, first dose 15 mg/kg then 10 mg/kg, three weeks
Protocol: Recombinant Mesd protein was prepared as described (Li Y, et al. (2005) J Cell Sci 118(22): 5305-5314). Mesd peptide, […] (SEQ ID NO: 14), was manufactured by Abgent (San Diego). Female athymic nude mice (Taconic) (6-8 weeks old) were used for passaging tumors from MMTV-Wnt1 mice (Taconic). MMTV-Wnt1 tumors were serially passaged in mice by implantation in the mammary fat pad as described (DeAlmeida V, et al. (2007) Cancer Res 67, 5371-5379). Therapeutic agents (200 μL Mesd protein, Mesd peptide or PBS) were administrated i.p. with a first dose of 15 mg/kg, followed by 10 mg/kg (9 more doses). Three groups of mice were treated every other day for three weeks and tumor volumes were measured thrice weekly.
The pharmacokinetics and bioavailability of Mesd and Mesd peptide ([…] (SEQ ID NO: 14)) were first investigated (FIG. 23). Cells from MMTV-Wnt1 tumors were injected into the mammary fat pads of female nude mice, and the resultant mice were subsequently randomly grouped when the mean tumor volume reached ca. 200 mm^3. […]
In these experiments, mice bearing established MMTV-Wnt1 tumor transplants were divided into three groups (five animals per group) and were i.p. injected with PBS (vehicle), Mesd, or Mesd peptide every other day. Tumor volume was analyzed using caliper measurement. […]

Wnt signaling [4] = assay: TCF/LEF-luc reporter assay in Wnt-3A-treated HEK293 cells; assay type: cell-based; conditions: Wnt3A conditioned medium plus Dkk1 at 10 nM, 16 hours at 37° C.
Protocol: HEK293 cells were plated into six-well plates. For each well, 0.1 μg of the TOP-FLASHTCF luciferase construct (Upstate Biotechnology) was cotransfected with 0.8 μg Mesd-expressing vector, 0.8 μg Mesd mutant-expressing vector, or empty vector. A β-galactosidase-expressing vector (Promega, Madison, Wis.) was included as an internal control for transfection efficiency. After 48 hours, cells were lysed and both luciferase and β-galactosidase activities were determined with enzyme assay kits (Promega). The luciferase activity was determined with a luminometer using the Dual Luciferase Assay system (Promega). Luciferase activity was normalized to the activity of the β-galactosidase.
In these experiments, transfected cells were treated without Wnt-3A or with Wnt-3A plus the indicated inhibitors (Mesd and/or Dkk1) for 16 hours at 37° C. Wnt signaling was measured by quantifying the luciferase activity using a live cell imaging system.

HCC1187 cells = assay: MTT assay of Wnt3a CM-stimulated growth of HCC1187 cells; assay type: cell-based, human; conditions: Dkk1 10 nM, 24 h
Protocol: Cell growth and cell proliferation were measured by MTT assay (Promega) and BrdU incorporation using the BrdU ELISA kit (Roche Molecular Systems) according to the manufacturers' instructions. […] Breast cancer cells expressing control or LRP6 shRNA were seeded into 48-well plates. MTT-labeling reagent was added to each well 24 h later, and plates were incubated at 37° C. for 4 h. After the incubation period, the formazan crystals were dissolved in an MTT solubilization reagent and the resulting color was quantified spectrophotometrically. In some experiments, cell proliferation was measured by BrdU incorporation using the BrdU ELISA kit (Roche Molecular Systems) according to the manufacturer's instructions. Briefly, cancer cells expressing control or LRP6 shRNA were plated on 96-well plate. Cells were incubated with BrdU for 24 h, and the newly synthesized BrdU-DNA was then determined by colorimetry using an ELISA reader. All experiments were performed three times in triplicate.
In FIG. 20, * indicates p<0.05 compared to L cell CM; ** indicates p<0.01 compared to L cell CM.

Molecule	Adverse effect on small intestine (gross examination) [1]	Architecture of gastrointestinal compartments and skin (H&E) [1]	Bone lesions or outgrowths in tail vertebrae [1]	General health and body weight of treated mice [1]	Bioavailability [2] [%]	Distribution into tissues [2]	Wnt signaling in tumors compared to control treatment (Wnt signaling [3])	Tumor growth (tumor volume, caliper) (MMTV-Wnt1 tumors)	Inhibition of Wnt signaling (luciferase activity) (Wnt signaling [4])	Effect on Wnt3a CM-increased cell growth (HCC1187 cells)
KGGGSKEKNKTKQDKGKKKKEGDLKSRSSKEENRAGNK [Mesd peptide]	no significant adverse effect	morphologically normal	no significant bone lesions or outgrowths	grossly healthy and maintain their weights	60	rapid and widespread	decreased Wnt signaling	significantly inhibit tumor growth		
B1									more potent inhibitor	abolished
